In patent publication US7976841B2, “Anti TfR antibody” (Institut National de la Sante et de la Recherche, priority 2004, dated 2011):

Assays:
[1] = test system: tumor cells derived from ATL acute patients; assay: Apoptosis assay (annexin V-FITC/PI, DIOC), acute ATL cells; assay type: cell-based, human
Protocol: Two million of PBMC from HTLV-1 patients were treated for 96 h with IL-2 and PHA in the presence or absence of A24 (10 μg/ml), 30.9 (10 μg/ml) or of the apoptosis-inducing agent VP16 (100 ng/ml). Cells were then washed with ice-cold PBS and incubated with a combination of annexin V-FITC and propidium iodide (PI) (Beckman-Coulter, Marseilles, France), according to the manufacturer recommendations. Alternatively, the apoptosis was evaluated through mitochondrial membrane depolarization with the DIOC staining (Molecular Probes) as described earlier (ZERMATI et al., J Exp Med., 193, 247-254, 2001).
Fe deprivation induces a variety of consequences, such as the reduction of cell proliferation and the activation of programmed cell death (HAQ et al., Exp Hematol., 23, 428-432, 1995), a phenomenon associated with phosphatidylserine exposure and mitochondrial membrane depolarization. […] The results are shown of FIGS. 7 A and 7B.
Comparative effect of A24, 30.9 and VP 16 on the induction of programmed cell death in selected cells. Cells were activated or not with PHA and IL-2 and incubated in the presence of 30.9, A24 and VP16. Apoptotic and necrotic cells were followed by flow cytometry using an annexin-V-FITC/PI kit. […] Data represents one out of three different experiments.

EBV+ and EBV− MCL lines = assay: MCL cell proliferation, radioactive thymidine incorporation; assay type: cell-based, human; conditions: 72 hours, […] to 20 μg/ml
Excerpt: The cellular proliferation is expressed as a percent of the proliferation of untreated control cells. The results are shown on FIG. 10.

CD20 = target: T1, CD20 (Homo sapiens, UniProt P11836); assay: CD20 expression at the surface of MCL cell lines, flow cytometry; assay type: cell-based; conditions: Rituximab 10 μg/ml, 30 minutes to 72 hours
T1 construct: target receptors TfR and CD20 at the surface of a MCL cell line EBV+ and a MCL cell line EBV^−; endogenous in cells; host or cells: MCL-derived B-cell lines (EBV+ and EBV-)
T1 sequence (P11836 1-297): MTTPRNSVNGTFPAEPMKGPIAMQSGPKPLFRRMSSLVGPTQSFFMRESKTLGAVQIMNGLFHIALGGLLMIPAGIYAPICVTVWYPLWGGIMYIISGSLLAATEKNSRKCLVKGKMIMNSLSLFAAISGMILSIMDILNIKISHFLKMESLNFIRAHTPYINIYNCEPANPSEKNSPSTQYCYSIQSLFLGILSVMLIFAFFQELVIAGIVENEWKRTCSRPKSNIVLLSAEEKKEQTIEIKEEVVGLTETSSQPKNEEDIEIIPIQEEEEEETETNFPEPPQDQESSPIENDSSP
Excerpt: In a first time, we checked by flow cytometry the rate of expression of TfR and CD20 on […] B-cells lines (EBV+ and EBV^−) derived from MCL5. using an anti-CD71-PE antibody (Beckman-Coulter) and an anti-CD20-PE antibody (Becton Dickinson). The results are shown on FIGS. 8 A and B. The gray histograms respectively represent the rate of expression of the CD71 (A) and of the CD20 (B) at the surface of MCL cells EBV+ (a,b,c,e,f,g) or EBV^− (d). This rate is specified on each histogram after substraction of the background noise of the staining.
The results are shown on FIGS. 9A (A24) and 9B (Rituximab).

[2] = test system: resting T cells co-cultured with dendritic cells; assay: Allogeneic Mixed Leukocyte Reaction (MLR), DC-induced T cell proliferation; assay type: cell-based, human; conditions: 6 days of culture
Excerpt: Peripheral blood mononuclear cells (PBMC) were isolated as described earlier by the standard Ficoll-Paque method (Amersham Life Science, Buckinghamshire, U.K.) (BAZARBACHI et al, Blood., 93, 278-283, 1999). The healthy volunteers and the 4 acute and 3 chronic ATL patients (classified following Shirono criteria) (SHIRONO et al., Leukemia., 8, 1834-1837, 1994) had all given their informed consent. ATL tumor cells represented between 60-90% of the T cell population. Each cell type was freshly cultured in conditioned RPMI-1640 medium supplemented with 10% of fetal calf serum (FCS, Gibco BRL) and a mixture of interleukin-2 (20 U/ml IL-2) and phytohemagglutinin (4 μg/ml PHA). Mixed leukocyte reaction (MLR) was performed as described earlier (TORDJMAN et al., Nat Immunol., 3, 477-482, 2002). CIB tropical spastic paraparesis (HAM/TSP) cell line was cultured in RPMI-1640 medium supplemented with 10% of FCS.
To test if A24 could also block physiologically activated T cell proliferation, we examined the effect of A24 in allogeneic Mixed Leukocyte Reaction (MLR). DC-induced allogenic T cell proliferation was evaluated after 6 days of culture in the presence of A24, control antibody (30.9) or arsenic trioxide (Ars). The results are shown in FIG. 1 B. Data represents means SD of one out of three separate experiments. […]

[3] = test system: HTLV-1 infected T cell clones; assay: Emergence of HTLV-1 infected T cell clones, 2-week culture; assay type: cell-based, human; conditions: chronic ATL PBMC, single dose on first day, 2 weeks
Protocol: HTLV-1 infected cells can proliferate in vitro, but the clones that proliferate in culture are generally not the same as those that proliferate in the patient. To verify if A24 could inhibit the emergence of HTLV-1 infected T cell clones, we cultured cells freshly isolated from patients and from healthy individuals in the presence or absence of A24. PBMC from HTLV-1 infected patients with a chronic ATL form were plated in culture wells with the 30.9, A24 or Ars for 2 weeks. Emergence of HTLV-1 clones was evaluated by [3H] thymidine incorporation. After 2 weeks of culture, the appearance of proliferating cells was assessed by [3H] thymidine incorporation.

[4] = test system: peripheral blood leukocytes (PBMC); assay: Proliferation of PHA/IL-2-activated PBMC from healthy individuals, [3H]-thymidine incorporation; assay type: cell-based, human; conditions: PHA/IL-2, 72 h
Protocol: (§1) PBMC were resuspended in RPMI-1640 with 10% FCS, and added in triplicates at the concentration of 10^5 cells/well in 96-well tissue culture plates (Falcon, Oxnard, Calif.). Proliferation was measured over 18 h, using pulses with 1 μCi/well of [^3H]-thymidine (Amersham Life Science, Buckinghamshire, U.K.). Cells were then harvested with a 96-well Harvester (Pharmacia, St. Quentin, France), collected on filters (Pharmacia) and the incorporation of [^3H] thymidine was measured with β-plate microscintillation counter (LKB, Pharmacia).
To investigate the activity of A24 on peripheral blood leukocytes (PBMC) proliferation, cells were activated with PHA/IL-2 and incubated with different concentrations of A24 (0 to 50 μg/ml) or control antibody (30.9) (0 to 50 μg/ml) for 72 h before [^3H]-thymidine incorporation.
(§2) TfR expression is essential for the proliferation of both normal and malignant T cells. While TfR expression in normal T cells is tightly coupled to interleukin-2 receptor expression, TfR expression in malignant cells is usually constitutive. It was previously shown that the anti-IL-2Rα can efficiently block the ex vivo proliferation of cells derived from chronic ATL patients. […] Proliferation of these cells was then measured by [^3H] thymidine incorporation. […]

[5] = test system: PBMC from HTLV-I infected patients with acute or chronic ATL; assay: Proliferation of PBMC from ATL patients, PHA/IL-2, [3H] thymidine incorporation; assay type: cell-based, human; conditions: PHA/IL-2, 72 h
Protocol: as §1
PBMC from healthy individuals (a) and HTLV-I infected patients with an acute ATL (b) or a chronic ATL (c) were plated in culture wells with A24 or a control antibody (30.9) in the presence of PHA/IL-2, for 72 h before [3H] thymidine incorporation. The results are shown on FIG. 2C.
as §2

COc1cc([C@@H]2c3cc4c(cc3[C@@H](O[C@@H]3O[C@@H]5CO[C@@H](C)O[C@H]5[C@H](O)[C@H]3O)[C@H]3COC(=O)[C@H]23)OCO4)cc(OC)c1O [VP 16]
annexin-V staining ([1]; A24 10 μg/ml, VP16 100 ng/ml, 96 h): a large population that stained brightly with annexin-V appeared | DIOC staining (mitochondrial depolarization) ([1]; activated leukocytes from ATL acute patient): drastic reduction

Rituximab: anti-CD20 antibody manufactured by Genentech
inhibition of MCL proliferation (EBV+ and EBV− MCL lines): ≤ 20% | expression of the CD20 (CD20): does not induce notable reduction

arsenic trioxide
effect on T cell proliferation [2]: block T cell proliferation | effect on proliferation of HTLV-1 infected T cell clones [3]: more efficient than A24

B1: anti-IL-2Rα: anti-IL-2Rα monoclonal antibody (Zenapax from Hoffmann-La Roche) (antibody, chains of the INN, looked up, V domains shown)
VH: QVQLVQSGAEVKKPGSSVKVSCKASGYTFTSYRMHWVRQAPGQGLEWIGYINPSTGYTEYNQKFKDKATITADESTNTAYMELSSLRSEDTAVYYCARGGGVFDYWGQGTLVTVSS
VL: DIQMTQSPSTLSASVGDRVTITCSASSSISYMHWYQQKPGKAPKLLIYTTSNLASGVPARFSGSGSGTEFTLTISSLQPDDFATYYCHQRSTYPLTFGQGTKVEVK
effect on PHA/IL-2-induced cell proliferation [4]: significantly inhibited | effect on cell proliferation, acute ATL ([5]; acute ATL): did not block | effect on cell proliferation, chronic ATL ([5]; chronic ATL): significantly inhibited
